Results: US11103562B2, “Composition comprising alkaline phosphatase for use in the treatment of arthritides” (AMRIF BV, priority 2017, dated 2021)
Entries after “also recorded” stand apart in the source; their conditions may differ.

Tests used:
macrophages = conditions: rat, in vivo
Protocol: At the end of the treatment period, arthritic rats receiving 4× AP, 4× AP/low dose MTX, 4× AP/high dose MTX treatment, and untreated rats, were administered with [^18F]fluoro-PEG-folate tracer. Sixty minutes after tracer administration, rats were sacrificed. Low and high dose MTX treated arthritic rats were sacrificed without tracer administration. Upon sacrificing, all rats were excised and knees, blood and various internal organs were collected, rinsed, dipped dry, weighed and the amount of radioactivity determined using an LKB 1282 Compugamma CS gamma counter (LKB, Wallac, Turku, Finland). Results for tracer uptake in the various tissues were expressed as percentage of the injected dose per gram tissue (%ID/g).

[1] = Tolerability of therapeutic interventions in arthritic rats; format: in vivo
Protocol: (§1) All rats (except healthy) were immunized and arthritis was induced via 1× or 4× intra-articular (i.a) mBSA injections, 4 or 5 days apart in the arthritic (right) knee, the contralateral (left, non-arthritic) knee serving as control knee. For therapeutic interventions, AP (human recombinant placenta AP, TNO, Zeist, The Netherlands) was administered subcutaneously (s.c.) at a dose of 700 U/kg (≈200 μg), MTX (VU University Medical Centers' Pharmacy) was administered intra-peritoneal (i.p.) at two dosages: 0.3 mg/kg (low dose) and 1.0 mg/kg (high dose). The rats were divided in 8 groups, based on different treatments and treatment schedules. In a prophylactic setting, two rats received AP twice prior to intra-articular (i.a.) arthritis induction and four rats received AP twice prior to intra-articular and 4× PBS in between i.a. injections. In the treatment groups, arthritic rats were administered AP twice or 4× after arthritis induction, either as standalone therapy or in combination with low or high dose MTX. Control rats received 500 μL of PBS (i.p.). […] At the end of study, all rats were sacrificed and tissues were excised for further processing and various analyses.

[2] = test system: ED1+ and ED2+ synovial macrophages; experiment: Synovial macrophage infiltration (ED1/ED2 immunohistochemistry) in knees of rats with mBSA antigen-induced arthritis; format: in vivo, rat
Protocol: (§2) Experiments were performed using a rat model for RA as published by Chandruputla et al. (BioMed Int, 2015) to show the effects of recombinant human alkaline phosphatase (hRESCAP) on RA. hRESCAP was compared with MTX used as a positive control. The antigen-induced rat model uses two subcutaneous immunizations with a mixture of methylated bovine serum albumin (mBSA), CFA (complete Freund's adjuvant antigen) and CBP (custom Bordetella pertussis antigen) and intra-articular injections of mBSA on one side knee and saline (negative control) on the counter knee. Immunohistochemical (IHC) analysis specifically focussed on infiltration with macrophages and knee swelling is followed over time after therapeutic treatment with MTX, or hRESCAP.
(§3) In the rat model, RA is induced in the right knee (RA knee), the contralateral left knee serves as a internal control (control knee). The model allows various options for therapeutic interventions, either before intra-articular injections or during boosts injections with mBSA. Two hours prior to AP administration, rats received a dose of levamisole (50 mg/kg, s.c.). For comparison, arthritic rats received treatment with methotrexate (1 mg/kg, i.p.).
At the end of the experiment, rats were sacrificed and knees were decalcified and processed for IHC analysis of synovial macrophage infiltration, including 2 rat macrophage antibodies; ED1 (homolog of human CD68) and ED2 (homolog of human CD163, a proposed marker for human M2 anti-inflammatory macrophages). IHC analysis of ED1 and ED2 macrophages was performed in multiple quadrants of synovial tissue, as described by Chandruputla et al (BioMed Int, 2015). Macrophage counting included synovial lining layer (SL 1-10) and synovial sublining layers (SL 1-20).
as §1
The arthritic and contralateral knees from all rats were dissected in toto and fixed for 7 days at 4° C. in 10% freshly made paraformaldehyde in PBS with 2% sucrose (pH=7.3) prior to decalcification in osteosoft (101728, Merck, Germany) for ˜2.5 weeks at room temperature. Thereafter, knees were embedded in paraffin. Sections of 5 μm were cut through the centre of the joint in longitudinal direction and stained with haematoxylin and eosin (HE) to assess the degree of inflammation in synovial tissue. Liver and spleen sections from all rats were dissected and fixed in 4% paraformaldehyde for 24 h before embedding in paraffin. Sections of 5 μm were cut and stained initially with HE and then for macrophages Staining for macrophages with ED1 (homologous to human CD68), and ED2 (homologous to human CD163, a marker for M2 anti-inflammatory macrophages), or isotype control antibody was performed. Images were captured using a Leica 4000B microscope and Leica digital camera DC500 (Microsystems B. V. Rijswijk, The Netherlands). […]

arthritic rats = experiment: Knee swelling in rats with mBSA antigen-induced arthritis; format: in vivo, rat
Protocol: as §2, §3, §1

[3] = cited from earlier work; for plasma residence time: in vivo

**Q.** Which “clearance of the tracer from plasma” value (macrophages) does the source give for “[^18F]fluoro-PEG-folate [reference compound]” here?
**A.** The value was “rapidly cleared from plasma”.

**Q.** Which results are given for CN(Cc1cnc2nc(N)nc(N)c2n1)c1ccc(C(=O)N[C@@H](CCC(=O)O)C(=O)O)cc1 [MTX, Methotrexate, reference compound]?
**A.** changes in body weight [1]: nor were significant changes in the body weight observed; effect of the two MTX doses on the number of ED1 macrophages in the arthritic knee ([2]; MTX 0.3 mg/kg versus 1.0 mg/kg): identical effect; ED1+ synovial macrophage infiltration in arthritic knee (in words) ([2]; therapeutic treatment, 4× after first i.a. and in between boosts, AP 700 U/kg, MTX 1 mg/kg): even more reduced macrophage ED1+ counts; also recorded: very much reduced; swelling of the mBSA-injected right knee (arthritic rats; prophylactic and therapeutic AP treatment or MTX treatment, versus positive control): Reduced swelling; swelling of the non-treated left knee (arthritic rats; versus positive control treatment): swelling is reduced

B1: intestinal isoenzyme: intestinal alkaline phosphatase isoenzyme, tissue specific ectophosphatase (protein, UniProt P09923 20-503, looked up)
Intestinal-type alkaline …: VIPAEEENPAFWNRQAAEALDAAKKLQPIQKVAKNLILFLGDGLGVPTVTATRILKGQKNGKLGPETPLAMDRFPYLALSKTYNVDRQVPDSAATATAYLCGVKANFQTIGLSAAARFNQCNTTRGNEVISVMNRAKQAGKSVGVVTTTRVQHASPAGTYAHTVNRNWYSDADMPASARQEGCQDIATQLISNMDIDVILGGGRKYMFPMGTPDPEYPADASQNGIRLDGKNLVQEWLAKHQGAWYVWNRTELMQASLDQSVTHLMGLFEPGDTKYEIHRDPTLDPSLMEMTEAALRLLSRNPRGFYLFVEGGRIDHGHHEGVAYQALTEAVMFDDAIERAGQLTSEEDTLTLVTADHSHVFSFGGYTLRGSSIFGLAPSKAQDSKAYTSILYGNGPGYVFNSGVRPDVNESESGSPDYQQQAAVPLSSETHGGEDVAVFARGPQAHLVHGVQEQSFVAHVMAFAACLEPYTACDLAPPACTTD
**Q.** Which plasma residence time [3] does the source give for B1 here?
**A.** The plasma residence time was “short plasma residence time”.

B2: placental ALP: human placental alkaline phosphatase isoenzyme, fully glycosylated tissue specific ectophosphatase (native or recombinant) (protein, UniProt P05187 23-506, looked up)
Alkaline phosphatase, …: IIPVEEENPDFWNREAAEALGAAKKLQPAQTAAKNLIIFLGDGMGVSTVTAARILKGQKKDKLGPEIPLAMDRFPYVALSKTYNVDKHVPDSGATATAYLCGVKGNFQTIGLSAAARFNQCNTTRGNEVISVMNRAKKAGKSVGVVTTTRVQHASPAGTYAHTVNRNWYSDADVPASARQEGCQDIATQLISNMDIDVILGGGRKYMFRMGTPDPEYPDDYSQGGTRLDGKNLVQEWLAKRQGARYVWNRTELMQASLDPSVTHLMGLFEPGDMKYEIHRDSTLDPSLMEMTEAALRLLSRNPRGFFLFVEGGRIDHGHHESRAYRALTETIMFDDAIERAGQLTSEEDTLSLVTADHSHVFSFGGYPLRGSSIFGLAPGKARDRKAYTVLLYGNGPGYVLKDGARPDVTESESGSPEYRQQSAVPLDEETHAGEDVAVFARGPQAHLVHGVQEQTFIAHVMAFAACLEPYTACDLAPPAGTTD
**Q.** With B2 as the molecule, how does the plasma residence time [3] read?
**A.** The plasma residence time was 6 to 7 days.

**Q.** And the “half-life (T1/2) of clearance out of circulation” value ([3]; pregnant women)?
**A.** Its value is 170 h.
